# Reference: PubChem BioAssay AID2060607 (Molecular Pharmacology Branch, DTP, NCI, 2025)
# Tested on: 876862-298-R-J1-PDC complex spheroids, viability % test/control
# Test: Anticancer human tumor 876862-298-R-J1-PDC patient-derived endometrial carcinoma cell line growth inhibition [CLK]
# Conditions: for IC50: curve of first compound; for viability, T/C: stronger effect = lower value
# Text: A high-throughput screen of multi-cell type tumor spheroids was designed to identify active combinations of […] and targeted small molecules. Complex spheroids include a stromal component modeled by human endothelial cells (HUVEC) and fibroblasts modeled by human mesenchymal stem cells (MSCs). The concentration ranges selected for each drug and investigational agent were based upon clinically achievable concentrations if the clinical Cmax of the agent was known.
# Compounds. The drugs and investigational agents: cirtuvivint (SM08502; NSC835563), CC-671 (NSC850746), vemurafenib (NSC761431), tapotoclax (NSC804041), sotorasib (NSC818433), adagrasib (NSC831453), MRTX-1133 (NSC836407), BAY2416964 (NSC825713), copanlisib (NSC816437), inavolisib (NSC800729), abemaciclib (NSC768073), osimertinib (NSC779217), entinostat (NSC756642), eltanexor (KPT-8602, NSC794443), venetoclax (NSC766270), ceralasertib (NSC777638), bortezomib (NSC756655), olaparib (NSC753686), talazoparib (NSC767125), alisertib (NSC759677), peposertib (NSC802822), gemcitabine (NSC613327), 5-fluorouracil (NSC19893), SN-38 (NSC673596), oxaliplatin (NSC266046), paclitaxel (NSC125973), and doxorubicin (NSC123127), were obtained from the National Cancer Institute (NCI) Developmental Therapeutics Program Chemical Repository. The FDA-approved anticancer drug set is available from the Developmental Therapeutics Program at https://dtp.cancer.gov/organization/dscb/obtaining/available plates.htm. […] The stock solutions were prepared in dimethyl sulfoxide (DMSO, Sigma-Aldrich, St. Louis, MO, cat. D2650), except for the platinum complexes which were prepared in saline (Quality Biological, Gaithersburg, MD, cat. 114-055-101), at 800-fold the tested concentration and stored at -70 degrees C prior to their use. All drugs and investigational agents were tested over a range starting from a high concentration at or near the clinical Cmax and decreasing in half-log increments. If the clinical Cmax for an agent had not been determined, the highest concentration tested was 10 microM.
# Cell Culture. All cells were maintained in an incubator at 37 degrees C and 5% CO2 with 95% humidity. The PDC lines were cultured according to standard operating procedures established by the NCI PDMR. Briefly, all PDCs were thawed and cultured in Matrigel-coated flasks prepared with a working solution of 1X Ham's F-12 nutrient mix, without supplementation (Invitrogen, Waltham, MA, cat. 11765054), 100 U/mL penicillin-streptomycin (Invitrogen, cat. 15140122), and 2.5% Matrigel (Corning Inc., Corning, NY, cat. 354248) for the first three passages. The 947758-054-R-J2-PDC line was cultured in 6B/Colon 1A media, which includes advanced DMEM/F-12 (Thermo Fisher Scientific, cat. 12634028), 10 mM HEPES (Thermo Fisher Scientific, cat. 15630080), 1X GlutaMAX supplement (Thermo Fisher Scientific, cat. 35050061), 0.1 mg/mL primocin (InvivoGen, cat. ant-pm-2), 10% defined fetal bovine serum, heat inactivated (HyClone Laboratories Inc., cat. SH30070.03HI), 1.25 mM N-Acetyl-L-cysteine (Sigma-Aldrich, cat. A9165), 10 mM nicotinamide (Sigma-Aldrich, cat. N0636), 1X B-27 supplement (Thermo Fisher Scientific, cat. 17504044), 1X N-2 supplement (Thermo Fisher Scientific, cat. 17502048), and 10 microM Y-27632 dihydrochloride (Tocris Bioscience, cat. 1254). The 876862-298-R-J1-PDC was cultured in 6E media, which includes all 6B/Colon 1A media components plus 50% L-WRN conditioned media (ATCC, cat. CRL-3276), 50 ng/mL recombinant human EGF recombinant protein (hEGF; Thermo Fisher Scientific, cat. PHG0311), 10 ng/mL recombinant human fibroblast growth factor 10 (hGFG-10; PeproTech, cat. 100-26), 1 ng/mL recombinant human fibroblast growth factor 2 (hFGF-2; PeproTech, cat. 100-18B), and 1 µM prostaglandin E2 (PGE2; Tocris, cat. 2296). The 227483-062-R1-J1-PDC line was cultured in Panc media, containing all 6E components except hFGF-2, with the addition of 500 nM SB-431542 (Selleckchem, cat. S1067) and 10 nM gastrin (Tocris, cat. 3006). […]
# [1] = second compound 0.0316 µM, first compound 0.0316 µM
# [2] = second compound 0.0316 µM, first compound 0.1 µM
# [3] = second compound 0.0316 µM, first compound 0.316 µM
# [4] = second compound 0.0316 µM, first compound 1 µM
# [5] = second compound 0.1 µM, first compound 0.0316 µM
# [6] = second compound 0.1 µM, first compound 0.1 µM
# [7] = second compound 0.1 µM, first compound 0.316 µM
# [8] = second compound 0.1 µM, first compound 1 µM
# [9] = second compound 0.316 µM, first compound 0.0316 µM
# [10] = second compound 0.316 µM, first compound 0.1 µM
# [11] = second compound 0.316 µM, first compound 0.316 µM
# [12] = second compound 0.316 µM, first compound 1 µM
# [13] = second compound 1 µM, first compound 0.0316 µM
# [14] = second compound 1 µM, first compound 0.1 µM
# [15] = second compound 1 µM, first compound 0.316 µM
# [16] = second compound 1 µM, first compound 1 µM
# [17] = second compound 3.16 µM, first compound 0.0316 µM
# [18] = second compound 3.16 µM, first compound 0.1 µM
# [19] = second compound 3.16 µM, first compound 0.316 µM
# [20] = second compound 3.16 µM, first compound 1 µM
# [21] = second compound 10 µM, first compound 0.0316 µM
# [22] = second compound 10 µM, first compound 0.1 µM
# [23] = second compound 10 µM, first compound 0.316 µM
# [24] = second compound 10 µM, first compound 1 µM
# [25] = second compound 0.0316 µM, first compound 3.16 µM
# [26] = second compound 0.0316 µM, first compound 10 µM
# [27] = second compound 0.1 µM, first compound 3.16 µM
# [28] = second compound 0.1 µM, first compound 10 µM
# [29] = second compound 0.316 µM, first compound 3.16 µM
# [30] = second compound 0.316 µM, first compound 10 µM
# [31] = second compound 1 µM, first compound 3.16 µM
# [32] = second compound 1 µM, first compound 10 µM
# [33] = second compound 3.16 µM, first compound 3.16 µM
# [34] = second compound 3.16 µM, first compound 10 µM
# [35] = second compound 10 µM, first compound 3.16 µM
# [36] = second compound 10 µM, first compound 10 µM
# 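Also: spheroids exposed to drugs for 7 days before readout.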
# 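For viability, T/C in this document: 100% = DMSO vehicle control wells.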
smiles,measurement,setting,value
CCc1c2c(nc3ccc(O)cc13)-c1cc3c(c(=O)n1C2)COC(=O)[C@]3(O)CC + CNC(=O)c1ccc(Nc2nc(OC3CCCC3)c3c(-c4ccc5nc(C)oc5c4)c[nH]c3n2)c(OC)c1,IC50,second compound 0.0316 µM,< 3.16 nM
same,IC50,second compound 0.1 µM,< 3.16 nM
same,IC50,second compound 0.316 µM,< 3.16 nM
same,IC50,second compound 1 µM,< 3.16 nM
same,IC50,second compound 3.16 µM,< 3.16 nM
same,IC50,second compound 10 µM,< 3.16 nM
same,"viability, T/C","second compound 0.0316 µM, first compound 0.00316 µM",24%
same,"viability, T/C","second compound 0.0316 µM, first compound 0.01 µM",9.43%
same,"viability, T/C",[1],8.16%
same,"viability, T/C",[2],5.8%
same,"viability, T/C",[3],5.07%
same,"viability, T/C",[4],3.65%
same,"viability, T/C","second compound 0.1 µM, first compound 0.00316 µM",16.5%
same,"viability, T/C","second compound 0.1 µM, first compound 0.01 µM",7.94%
same,"viability, T/C",[5],7.35%
same,"viability, T/C",[6],4.4%
same,"viability, T/C",[7],4.15%
same,"viability, T/C",[8],3.49%
same,"viability, T/C","second compound 0.316 µM, first compound 0.00316 µM",14.8%
same,"viability, T/C","second compound 0.316 µM, first compound 0.01 µM",6.28%
same,"viability, T/C",[9],5.77%
same,"viability, T/C",[10],4.17%
same,"viability, T/C",[11],4.42%
same,"viability, T/C",[12],3.57%
same,"viability, T/C","second compound 1 µM, first compound 0.00316 µM",9.55%
same,"viability, T/C","second compound 1 µM, first compound 0.01 µM",5.23%
same,"viability, T/C",[13],4.77%
same,"viability, T/C",[14],4.25%
same,"viability, T/C",[15],3.64%
same,"viability, T/C",[16],2.78%
same,"viability, T/C","second compound 3.16 µM, first compound 0.00316 µM",7.99%
same,"viability, T/C","second compound 3.16 µM, first compound 0.01 µM",5.52%
same,"viability, T/C",[17],4.06%
same,"viability, T/C",[18],4.3%
same,"viability, T/C",[19],3.4%
same,"viability, T/C",[20],2.05%
same,"viability, T/C","second compound 10 µM, first compound 0.00316 µM",6.88%
same,"viability, T/C","second compound 10 µM, first compound 0.01 µM",4.97%
same,"viability, T/C",[21],5.13%
same,"viability, T/C",[22],4.85%
same,"viability, T/C",[23],3.25%
same,"viability, T/C",[24],1.96%
COC1C=CCC(C)C(C)S(=O)(=O)NC(=O)c2ccc3c(c2)N(CC2CCC21)CC1(CCCc2cc(Cl)ccc21)CO3 (stereo unspecified) + CNC(=O)c1ccc(Nc2nc(OC3CCCC3)c3c(-c4ccc5nc(C)oc5c4)c[nH]c3n2)c(OC)c1,IC50,second compound 0.0316 µM,6470 nM
same,IC50,second compound 0.1 µM,< 31.6 nM
same,IC50,second compound 0.316 µM,< 31.6 nM
same,IC50,second compound 1 µM,< 31.6 nM
same,IC50,second compound 3.16 µM,< 31.6 nM
same,IC50,second compound 10 µM,< 31.6 nM
same,"viability, T/C",[1],72%
same,"viability, T/C",[2],92.5%
same,"viability, T/C",[3],66.1%
same,"viability, T/C",[4],104%
same,"viability, T/C",[25],86.2%
same,"viability, T/C",[26],29.1%
same,"viability, T/C",[5],46.2%
same,"viability, T/C",[6],45.4%
same,"viability, T/C",[7],37.3%
same,"viability, T/C",[8],32.2%
same,"viability, T/C",[27],30.3%
same,"viability, T/C",[28],21.5%
same,"viability, T/C",[9],40.3%
same,"viability, T/C",[10],33.6%
same,"viability, T/C",[11],29.8%
same,"viability, T/C",[12],24.8%
same,"viability, T/C",[29],20.5%
same,"viability, T/C",[30],19.1%
same,"viability, T/C",[13],31.9%
same,"viability, T/C",[14],25.8%
same,"viability, T/C",[15],20.6%
same,"viability, T/C",[16],17.6%
same,"viability, T/C",[31],13.8%
same,"viability, T/C",[32],13.5%
same,"viability, T/C",[17],26.1%
same,"viability, T/C",[18],20.3%
same,"viability, T/C",[19],15.6%
same,"viability, T/C",[20],12%
same,"viability, T/C",[33],9.4%
same,"viability, T/C",[34],7.9%
same,"viability, T/C",[21],22.6%
same,"viability, T/C",[22],19%
same,"viability, T/C",[23],12.3%
same,"viability, T/C",[24],12.3%
same,"viability, T/C",[35],9.91%
same,"viability, T/C",[36],5.3%
C#Cc1c(F)ccc2cc(O)cc(-c3ncc4c(N5CC6CCC(C5)N6)nc(OCC56CCCN5CC(F)C6)nc4c3F)c12 (stereo unspecified) + CN1CCN(c2cc(C(=O)Nc3cc4cc(-c5cnn(C)c5)ccc4cn3)ccn2)CC1,IC50,second compound 0.0316 µM,> 10000 nM
same,IC50,second compound 0.1 µM,501 nM
same,IC50,second compound 0.316 µM,< 31.6 nM
same,IC50,second compound 1 µM,< 31.6 nM
same,IC50,second compound 3.16 µM,< 31.6 nM
same,IC50,second compound 10 µM,< 31.6 nM
same,"viability, T/C",[1],98.9%
same,"viability, T/C",[2],92.6%
same,"viability, T/C",[3],87.8%
same,"viability, T/C",[4],93.7%
same,"viability, T/C",[25],91.6%
same,"viability, T/C",[26],74.1%
same,"viability, T/C",[5],51.6%
same,"viability, T/C",[6],52.2%
same,"viability, T/C",[7],50.8%
same,"viability, T/C",[8],48.6%
same,"viability, T/C",[27],47.7%
same,"viability, T/C",[28],45.4%
same,"viability, T/C",[9],5.98%
same,"viability, T/C",[10],5.2%
same,"viability, T/C",[11],5.69%
same,"viability, T/C",[12],4.19%
same,"viability, T/C",[29],5.76%
same,"viability, T/C",[30],4.81%
same,"viability, T/C",[13],0.92%
same,"viability, T/C",[14],0.91%
same,"viability, T/C",[15],0.75%
same,"viability, T/C",[16],1.82%
same,"viability, T/C",[31],1.86%
same,"viability, T/C",[32],1.68%
same,"viability, T/C",[17],1.56%
same,"viability, T/C",[18],2.17%
same,"viability, T/C",[19],1.31%
same,"viability, T/C",[20],2.48%
same,"viability, T/C",[33],2.22%
same,"viability, T/C",[34],3.07%
same,"viability, T/C",[21],0.96%
same,"viability, T/C",[22],0.95%
same,"viability, T/C",[23],1.74%
same,"viability, T/C",[24],1.58%
same,"viability, T/C",[35],2.68%
same,"viability, T/C",[36],1.54%
